For experiment [1], the system named is SARS-CoV-2. As to conditions: read-out: antiviral EC50; ref 39 (Kasprzyk et al.); cited from earlier work.
The target of experiment [2] is T1, SARS-CoV-2 NSP14 MTase (Severe acute respiratory syndrome coronavirus 2, UniProt P0DTD1). To be noted: read-out: anti-MTase IC50; ref 39 (Kasprzyk et al.); cited from earlier work.
In experiment [3] the test system is SARS-CoV-2. As to conditions: read-out: antiviral EC50; ref 37 (Basu et al.); cited from earlier work.
For experiment [4], the target named is T2, NS5 MTase of ZIKV (Zika virus, UniProt Q32ZE1).
T2 sequence (Q32ZE1 2517-2790): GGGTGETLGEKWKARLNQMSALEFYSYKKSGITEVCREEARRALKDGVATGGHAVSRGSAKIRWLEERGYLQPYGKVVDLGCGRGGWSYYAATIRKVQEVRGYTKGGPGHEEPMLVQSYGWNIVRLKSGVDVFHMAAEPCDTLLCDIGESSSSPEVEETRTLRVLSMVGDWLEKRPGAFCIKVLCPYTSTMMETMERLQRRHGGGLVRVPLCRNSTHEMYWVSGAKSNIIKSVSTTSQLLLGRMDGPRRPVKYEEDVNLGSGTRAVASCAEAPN
The experiment in a line: FP-based FL-NAH displacement assay, ZIKV NS5. Format: binding. To be noted: ZIKV NS5 2.5 µM, 96-well plate.

For experiment [5], the target named is SARS-CoV-2 NSP16 2’-O MTase (Severe acute respiratory syndrome coronavirus 2, UniProt P0DTD1). The experiment in a line: FP-based FL-NAH displacement assay, NSP16. Format: binding. To be noted: NSP16 0.5 µM, 96-well plate.
Experiment [6] deals with T1, SARS-CoV-2 NSP14 MTase. The experiment in a line: FP-based FL-NAH displacement assay. In kind it is binding.
Experiment [7] addresses T1, SARS-CoV-2 NSP14 MTase. As to conditions: read-out: anti-MTase IC50; ref 37 (Basu et al.); cited from earlier work.
For experiment [8], the system named is SARS-CoV-2 WA strain. The experiment in a line: Checkerboard combination assay. Format: cell-based. To be noted: Vero E6 cells.

pEC50, pIC50: −log10 of the molar value. Where two headings read alike, the source gives them in different places.

`Cc1cc(-c2ccc(/N=N/c3ccc4c(S(=O)(=O)O)cc(S(=O)(=O)O)c(N)c4c3O)c(C)c2)ccc1/N=N/c1ccc2c(S(=O)(=O)O)cc(S(=O)(=O)O)c(N)c2c1O` [Evans Blue]: the negative logarithm of the EC50 (pEC50) (commonly the negative decadic logarithm of the EC50, by convention in mol/L) in experiment [1] was 4.51. The pIC50 (in general, −log10 of the IC50, conventionally taken in molar units) in experiment [2] is 5.31.

In the case of `N#Cc1ccc(N2N=C3c4ccc(C(=O)O)cc4CC[C@@H]3[C@@H]2C2CCCC2)cc1Cl` [PF-03882845], the pEC50 in experiment [3] is 4.96.

Consider `NCCOc1cc(C(=O)Nc2cc(OCCN)c3ccccc3n2)nc(C(=O)Nc2cc(OCCN)c3ccccc3n2)c1` [Pyridostatin], for which, in experiment [1], the pEC50 is 5.44. Besides, in experiment [2], the pIC50 is 5.39.

With `Nc1c(S(=O)(=O)O)cc(Nc2ccc(Nc3nc(Cl)nc(Nc4cccc(S(=O)(=O)O)c4)n3)c(S(=O)(=O)O)c2)c2c1C(=O)c1ccccc1C2=O` [Reactive blue 2], the pEC50 in experiment [1] was 4.79.

Take `Nc1ncnc2c1ncn2[C@@H]1O[C@H](CSCC[C@H](N)C(=O)O)[C@@H](O)[C@H]1O` [SAH, S-adenosyl-L-homocysteine]: the “quenching of FP from FL-NAH binding to the ZIKV NS5 MTase” value in experiment [4] is given as “quenched”. Besides, the “quenching of FP from FL-NAH binding to NSP16” value in experiment [5] is given as “quenched”.

In the case of `C[S+](CC[C@H](N)C(=O)[O-])C[C@H]1O[C@@H](n2cnc3c(N)ncnc32)[C@H](O)[C@@H]1O` (some centres unmarked) [SAM, S-adenosylmethionine], the “quenching of FP from FL-NAH binding to the ZIKV NS5 MTase” value in experiment [4] is “quenched”. For the same compound, in experiment [6], the pIC50 is 4.60. The “quenching of FP from FL-NAH binding to NSP16” value in experiment [5] is on record as “quenched”.

As for `O=C(CCCN1CCC(O)(c2cccc(C(F)(F)F)c2)CC1)c1ccc(F)cc1` [Trifluperidol], in experiment [3], the pEC50 is 4.22. Further, the pIC50 in experiment [7] is 4.64.

On to `CC(C)(C)[C@H](NC(=O)C(F)(F)F)C(=O)N1C[C@H]2[C@@H]([C@H]1C(=O)N[C@H](C#N)C[C@@H]1CCNC1=O)C2(C)C` [nirmatrelvir], for which, in experiment [8], the “EC50 shift in the presence of NSC111552 (1.67 µM)” value was about 1.8 fold.

On to `CCC(CC)COC(=O)[C@H](C)N[P@](=O)(OC[C@H]1O[C@@](C#N)(c2ccc3c(N)ncnn23)[C@H](O)[C@@H]1O)Oc1ccccc1` [remdesivir], for which the “EC50 decrease in the presence of NSC111552 ([…])” value in experiment [8] is “about 2.4 fold”.

As for Inauhzin, in experiment [3], the pEC50 was 4.89. Also, the pIC50 in experiment [7] is 4.89.

Source of the values: article PMC10165934 (Emerging Microbes & Infections, 2023).
